# Numbers after ± are expanded uncertainties.
# Details: Liquid
smiles,measurement,setting,value
Cc1ccccc1 [toluene],viscosity,"298.15 K, 100 kPa",0.555 ± 0.0045 mPa·s
same,viscosity,"298.15 K, 100 kPa, Vibrating wire viscometry",0.5551 ± 0.0065 mPa·s
same,viscosity,"298.15 K, 2110 kPa",0.5649 ± 0.0045 mPa·s
same,viscosity,"298.15 K, 4100 kPa",0.5743 ± 0.0046 mPa·s
same,viscosity,"298.15 K, 6100 kPa",0.585 ± 0.0046 mPa·s
same,viscosity,"298.15 K, 8110 kPa",0.5937 ± 0.0047 mPa·s
same,viscosity,"298.15 K, 10000 kPa, Vibrating wire viscometry",0.6003 ± 0.0068 mPa·s
same,viscosity,"298.15 K, 10110 kPa",0.6024 ± 0.0047 mPa·s
same,viscosity,"298.15 K, 20000 kPa, Vibrating wire viscometry",0.6445 ± 0.0071 mPa·s
same,viscosity,"298.15 K, 30000 kPa, Vibrating wire viscometry",0.6953 ± 0.0074 mPa·s
same,viscosity,"298.15 K, 40000 kPa, Vibrating wire viscometry",0.751 ± 0.0078 mPa·s
same,viscosity,"323.15 K, 100 kPa",0.4188 ± 0.0037 mPa·s
same,viscosity,"323.15 K, 100 kPa, Vibrating wire viscometry",0.4223 ± 0.0057 mPa·s
same,viscosity,"323.15 K, 2080 kPa",0.429 ± 0.0037 mPa·s
same,viscosity,"323.15 K, 4110 kPa",0.4348 ± 0.0038 mPa·s
same,viscosity,"323.15 K, 6000 kPa",0.4409 ± 0.0039 mPa·s
same,viscosity,"323.15 K, 8120 kPa",0.4493 ± 0.0039 mPa·s
same,viscosity,"323.15 K, 10000 kPa, Vibrating wire viscometry",0.4573 ± 0.0059 mPa·s
same,viscosity,"323.15 K, 10050 kPa",0.455 ± 0.0039 mPa·s
same,viscosity,"323.15 K, 12210 kPa",0.4637 ± 0.0039 mPa·s
same,viscosity,"323.15 K, 15000 kPa",0.4736 ± 0.0039 mPa·s
same,viscosity,"323.15 K, 20000 kPa, Vibrating wire viscometry",0.4945 ± 0.0062 mPa·s
same,viscosity,"323.15 K, 30000 kPa, Vibrating wire viscometry",0.5313 ± 0.0064 mPa·s
same,viscosity,"323.15 K, 40000 kPa, Vibrating wire viscometry",0.5718 ± 0.0067 mPa·s
same,viscosity,"348.15 K, 100 kPa",0.3331 ± 0.0032 mPa·s
same,viscosity,"348.15 K, 100 kPa, Vibrating wire viscometry",0.3285 ± 0.0052 mPa·s
same,viscosity,"348.15 K, 2120 kPa",0.3382 ± 0.0032 mPa·s
same,viscosity,"348.15 K, 10000 kPa, Vibrating wire viscometry",0.3583 ± 0.0053 mPa·s
same,viscosity,"348.15 K, 12110 kPa",0.3664 ± 0.0034 mPa·s
same,viscosity,"348.15 K, 15210 kPa",0.3759 ± 0.0034 mPa·s
same,viscosity,"348.15 K, 20000 kPa, Vibrating wire viscometry",0.3875 ± 0.0055 mPa·s
same,viscosity,"348.15 K, 30000 kPa, Vibrating wire viscometry",0.4165 ± 0.0057 mPa·s
same,viscosity,"348.15 K, 40000 kPa, Vibrating wire viscometry",0.4483 ± 0.0059 mPa·s

# Reference: the NIST ThermoML archive (doi:10.1021/je049636m)
